Laboratory results published in patent publication US10428081B2, “EGFR inhibitor, preparation method and use thereof” (Shanghai Hansoh Biomedical Co., Ltd., priority 2014, dated 2019).

Columns and labels:
[1] = biological target: exon 20 T790M mutant-type EGFR enzyme (Homo sapiens, UniProt P00533, T790M); assay: Enzymologic experiment of T790M mutant-type EGFR (TR-FRET); format: biochemical; settings: for IC50: T790M EGFR enzyme, TR-FRET, ATP 1 to 10 uM; for Selectivity of wild-type/mutant-type: ratio WT IC50 / T790M IC50, enzyme
Method: (§1) 2) 1 to 5 μL of diluted solution in gradient of the compound was added.
(§2) 3) The mixture was incubated for 10 minutes at room temperature.
(§3) 6) 5 μL of EDTA stop solution was added to terminate the reaction for 5 minutes.
7) […] of a test solution containing the labeled antibody was added, and the mixture was incubated at room temperature for 1 hour.
9) The inhibition rates were calculated according to the fluorescence signal values.
(§4) 10) The IC50 of the compound was obtained by curve fitting according to the inhibition rates at different concentrations.

wild-type EGFR enzyme = wild-type EGFR enzyme (Homo sapiens, UniProt P00533); assay: Enzymologic experiment of wild-type (WT) EGFR (TR-FRET); format: biochemical; settings: ATP 0.1 to 5 uM
Method: 2. Enzymologic Experiment of Wild-Type (WT) EGFR
In this experiment, the inhibitory effect of compounds on wild-type EGFR enzyme was tested by a fluorescence resonance energy transfer (TR-FRET) method, and the half maximal inhibitory concentration IC50 of the compounds on enzymatic activity was determined.
1) 1 to 5 μL of wild-type EGFR enzyme solution was added to a 384-well plate, and the final concentration of the enzyme was 0.1 to 1 nM.
as §1, §2, §3
7) 5 μL of a test solution containing the labeled antibody was added, and the mixture was incubated at room temperature for 1 hour.
9) The inhibition rates were calculated from the fluorescence signal values.
as §4

NCI-H1975 cells = assay: Inhibition of NCI-H1975 cell proliferation (CellTiter-Glo); format: cell-based; settings: for IC50: Homo sapiens, NCI-H1975, 72 h, NCI-H1975 cell proliferation, 72 hours, CellTiter-Glo, read-out: EGFR IC50 (nM) H1975; for Selectivity of wild-type/mutant-type: ratio A431 IC50 / H1975 IC50, cells
Method: 3. Experiment on the Inhibition of NCI-H1975 Cell Proliferation
In this experiment, the inhibitory effect of the compounds on NCI-H1975 cell proliferation was tested by a CellTiter-Glo method, and the half maximal inhibitory concentration (IC50) of the compounds on the activity of cell proliferation was determined.
The culture plate was incubated in an incubator for 16 to 24 hours (37° C., 5% CO2).
(§5) 2) Different concentrations of the test compound in a gradient dilution were added to the cells in the culture plate. The culture plate was incubated in an incubator for 72 hours (37° C., 5% CO2).
3) 50 to 100 μL of CellTiter-Glo reagent was added to each well. Then, the culture plate was shaken for 10 minutes, and left to stand at room temperature for 10 minutes.
(§6) 4) The chemiluminescence signal values of each plate were determined by a microplate reader.
5) The inhibition rates were calculated according to the chemiluminescence signal values.
6) The IC50 of the compound was obtained by curve fitting according to the inhibition rates at different concentrations.

A431 cells = assay: Inhibition of A431 cell proliferation (CellTiter-Glo); format: cell-based; settings: Homo sapiens, A-431, 72 h, read-out: EGFR IC50 (nM) A431
Method: 4. Experiment on the Inhibition of A431 Cell Proliferation
In this experiment, the inhibitory effect of the compounds on A431 cell proliferation was tested by a CellTiter-Glo method, and the half maximal inhibitory concentration (IC50) of the compounds on the activity of cell proliferation was determined.
The culture plate was incubated in the incubator for 16 to 24 hours (37° C., 5% CO2).
as §5
3) 50 to 100 μL of CellTiter-Glo reagent was added to each well. Then the culture plate was shaken for 10 minutes, and left to stand at room temperature for 10 minutes.
as §6
5) The inhibition rates were calculated according to the chemiluminescence signal values. 6) The IC50 of the compound was obtained by curve fitting according to the inhibition rates at different concentrations.

Sequence of wild-type EGFR enzyme (P00533 25-1210): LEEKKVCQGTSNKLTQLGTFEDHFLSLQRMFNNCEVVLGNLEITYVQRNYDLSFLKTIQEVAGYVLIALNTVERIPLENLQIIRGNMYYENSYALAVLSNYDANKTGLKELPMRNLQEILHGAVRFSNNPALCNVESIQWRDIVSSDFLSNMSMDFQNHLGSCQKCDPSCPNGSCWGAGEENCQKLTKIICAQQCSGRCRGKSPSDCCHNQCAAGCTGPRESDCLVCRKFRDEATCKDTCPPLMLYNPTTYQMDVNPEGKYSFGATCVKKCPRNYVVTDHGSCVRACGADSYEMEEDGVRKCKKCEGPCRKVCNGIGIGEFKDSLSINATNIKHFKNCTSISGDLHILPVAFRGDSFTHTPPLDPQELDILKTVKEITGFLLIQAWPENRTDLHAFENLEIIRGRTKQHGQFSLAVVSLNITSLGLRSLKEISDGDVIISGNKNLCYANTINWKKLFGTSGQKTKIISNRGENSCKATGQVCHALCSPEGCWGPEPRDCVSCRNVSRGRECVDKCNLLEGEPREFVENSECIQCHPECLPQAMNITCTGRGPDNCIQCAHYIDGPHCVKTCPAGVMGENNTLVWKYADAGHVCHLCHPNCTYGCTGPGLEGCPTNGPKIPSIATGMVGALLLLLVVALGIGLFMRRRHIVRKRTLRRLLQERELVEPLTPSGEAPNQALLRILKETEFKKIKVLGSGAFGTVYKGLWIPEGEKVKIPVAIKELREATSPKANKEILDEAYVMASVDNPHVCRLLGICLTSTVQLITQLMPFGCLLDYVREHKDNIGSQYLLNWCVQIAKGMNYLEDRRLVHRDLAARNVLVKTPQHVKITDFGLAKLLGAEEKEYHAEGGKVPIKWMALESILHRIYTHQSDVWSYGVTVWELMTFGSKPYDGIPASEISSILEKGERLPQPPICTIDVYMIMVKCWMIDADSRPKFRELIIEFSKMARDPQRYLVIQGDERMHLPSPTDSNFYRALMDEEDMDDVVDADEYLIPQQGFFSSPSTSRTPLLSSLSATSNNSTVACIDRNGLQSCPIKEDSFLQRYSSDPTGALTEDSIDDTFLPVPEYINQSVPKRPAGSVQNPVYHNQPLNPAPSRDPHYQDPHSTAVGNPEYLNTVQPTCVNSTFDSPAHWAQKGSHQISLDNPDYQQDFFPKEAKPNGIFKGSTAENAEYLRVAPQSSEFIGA
Sequence of exon 20 T790M mutant-type EGFR enzyme (P00533 25-1210 T790M): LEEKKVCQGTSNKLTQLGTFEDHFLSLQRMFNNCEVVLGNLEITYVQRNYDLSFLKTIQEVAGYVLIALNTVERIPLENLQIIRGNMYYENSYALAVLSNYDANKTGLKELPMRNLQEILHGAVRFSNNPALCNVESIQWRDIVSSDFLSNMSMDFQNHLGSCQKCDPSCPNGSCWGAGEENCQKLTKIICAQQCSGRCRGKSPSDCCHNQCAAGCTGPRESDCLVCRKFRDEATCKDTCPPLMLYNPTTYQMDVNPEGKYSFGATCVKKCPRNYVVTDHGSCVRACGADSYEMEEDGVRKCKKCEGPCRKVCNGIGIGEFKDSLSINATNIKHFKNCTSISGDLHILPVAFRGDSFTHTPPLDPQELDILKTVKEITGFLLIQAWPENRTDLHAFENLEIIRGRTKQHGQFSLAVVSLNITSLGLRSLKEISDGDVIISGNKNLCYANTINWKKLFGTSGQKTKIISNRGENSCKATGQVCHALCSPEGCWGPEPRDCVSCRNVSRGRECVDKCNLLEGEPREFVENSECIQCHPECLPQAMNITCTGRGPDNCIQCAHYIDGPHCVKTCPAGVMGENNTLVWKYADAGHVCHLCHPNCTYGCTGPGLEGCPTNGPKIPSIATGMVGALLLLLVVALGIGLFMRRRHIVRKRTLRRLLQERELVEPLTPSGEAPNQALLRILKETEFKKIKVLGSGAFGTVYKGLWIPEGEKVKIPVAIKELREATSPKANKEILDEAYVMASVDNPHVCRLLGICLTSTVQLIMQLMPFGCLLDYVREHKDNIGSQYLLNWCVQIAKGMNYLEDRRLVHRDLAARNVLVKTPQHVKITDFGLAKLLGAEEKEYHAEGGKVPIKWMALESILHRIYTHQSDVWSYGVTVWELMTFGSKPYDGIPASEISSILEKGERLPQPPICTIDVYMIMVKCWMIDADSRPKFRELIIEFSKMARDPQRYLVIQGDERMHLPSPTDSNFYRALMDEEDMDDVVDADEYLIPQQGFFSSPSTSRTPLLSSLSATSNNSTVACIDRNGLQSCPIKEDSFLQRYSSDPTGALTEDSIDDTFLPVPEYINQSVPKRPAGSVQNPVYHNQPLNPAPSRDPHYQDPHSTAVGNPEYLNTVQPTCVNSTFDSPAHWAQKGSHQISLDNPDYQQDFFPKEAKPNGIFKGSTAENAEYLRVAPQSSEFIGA

Compound | IC50 [1] [nM] | Selectivity of wild-type/mutant-type [1] | IC50 (wild-type EGFR enzyme) [nM] | IC50 (NCI-H1975 cells) [nM] | Selectivity of wild-type/mutant-type (NCI-H1975 cells) | IC50 (A431 cells) [nM]
C=CC(=O)Nc1cc(Nc2nccc(-c3cn(C)c4ccccc34)n2)c(OC(F)F)cc1N1CCN(C)CC1 [Example 2, N-(4-(difluoromethoxy)-5-((4-(1-methyl-1H-indol-3-yl)pyrimidin-2-yl)amino)-2-(4-methylpiperazine-1-yl)phenyl)acrylamide] | 9.26 | 15 | 143 | 1.36 | 164 | 224
C=CC(=O)Nc1cc(Nc2nccc(-c3cn(C)c4cc(OC)ccc34)n2)c(OC(F)F)cc1N(C)CCN(C)C [Example 4, N-(4-(difluoromethoxy)-2-((2-(dimethylamino)ethyl)(methyl)amino)-5-((4-(6-methoxy-1-methyl-1H-indol-3-yl)pyrimidin-2-yl)amino)phenyl)acrylamide] | 0.39 | 16.3 | 6.41 | 10 | 15.78 | 158
C=CC(=O)Nc1cc(Nc2ncc(Cl)c(-c3cn(C)c4ccccc34)n2)c(OC(F)F)cc1N(C)CCN(C)C [Example 5, N-(5-((5-chloro-4-(1-methyl-1H-indol-3-yl)pyrimidin-2-yl)amino)-4-(difluoromethoxy)-2-((2-(dimethylamino)ethyl)(methyl)amino)phenyl)acrylamide] | 0.32 | 2.5 | 0.8 | 5.9 | 36 | 212
C=CC(=O)Nc1cc(Nc2nccc(-c3cn(CCO)c4ccccc34)n2)c(OC(F)F)cc1N(C)CCN(C)C [Example 6, N-(4-(difluoromethoxy)-2-((2-(dimethylamino)ethyl)(methyl)amino)-5-((4-(1-(2-hydroxyethyl)-1H-indol-3-yl)pyrimidin-2-yl)amino)phenyl)acrylamide] |  |  | 1.54 | 2.2 |  | 208
C=CC(=O)Nc1cc(Nc2nccc(-c3cn(C(C)=O)c4ccccc34)n2)c(OC(F)F)cc1N(C)CCN(C)C [Example 7, N-(5-((4-(1-acetyl-1H-indol-3-yl)pyrimidin-2-yl)amino)-4-(difluoromethoxy)-2-((2-(dimethylamino)ethyl)(methyl)amino)phenyl)acrylamide] |  |  | 15.5 | 15.8 |  | 192
C=CC(=O)Nc1cc(Nc2nccc(-c3c[nH]c4ccccc34)n2)c(OC(F)F)cc1N(C)CCN(C)C [Example 8, N-(5-((4-(1H-indol-3-yl)pyrimidin-2-yl)amino)-4-(difluoromethoxy)-2-((2-(dimethylamino)ethyl)(methyl)amino)phenyl)acrylamide] | 0.42 | 8.8 | 3.64 | 5.21 | 10.8 | 56.2
C=CC(=O)Nc1cc(Nc2nccc(-c3cn(C)c4cc(C#N)ccc34)n2)c(OC(F)F)cc1N(C)CCN(C)C [Example 9, N-(5-((4-(6-cyano-1-methyl-1H-indol-3-yl)pyrimidin-2-yl)amino)-4-(difluoromethoxy)-2-((2-(dimethylamino)ethyl)(methyl)amino)phenyl)acrylamide] | 0.39 | 5.44 | 2.12 | 4.58 | 47.07 | 216
C#Cc1ccc2c(-c3ccnc(Nc4cc(NC(=O)C=C)c(N(C)CCN(C)C)cc4OC)n3)cn(C)c2c1 [Example 95, N-(2-((2-(dimethylamino)ethyl)(methyl)amino)-5-((4-(6-ethynyl-1-methyl-1H-indol-3-yl)pyrimidin-2-yl)amino)-4-methoxyphenyl)acrylamide] | 0.51 |  | 5.35 | 10.9 |  | 
C=CC(=O)Nc1cc(Nc2ncc(Cl)c(-c3cn(C4CC4)c4ccccc34)n2)c(OC)cc1N(C)CCN(C)C [Example 100, N-(5-((5-chloro-4-(1-cyclopropyl-1H-indol-3-yl)pyrimidin-2-yl)amino)-2-((2-(dimethylamino)ethyl)(methyl)amino)-4-methoxyphenyl)acrylamide] |  |  |  | 8.72 |  | 350
C=CC(=O)Nc1cc(Nc2nccc(-c3nn(C4CC4)c4ccccc34)n2)c(OC)cc1N(C)CCN(C)C [Example 119, N-(5-((4-(1-cyclopropyl-1H-indazol-3-yl)pyrimidin-2-yl)amino)-2-((2-(dimethylamino)ethyl)(methyl)amino)-4-methoxyphenyl)acrylamide] | 0.47 | 9.23 | 4.34 | 2.32 |  | 
C=CC(=O)Nc1cc(Nc2nccc(-c3cn(C4CC4)c4ccccc34)n2)c(OC)cc1N(C)CCN1CCOCC1 [Example 124, N-(5-((4-(1-cyclopropyl-1H-indol-3-yl)pyrimidin-2-yl)amino)-4-methoxy-2-(methyl(2-morpholinoethyl)amino)phenyl)acrylamide] | 4.18 | 45.43 | 190 | 30.8 |  | 
C=CCn1cc(-c2ccnc(Nc3cc(NC(=O)C=C)c(N(C)CCNC)cc3OC)n2)c2ccccc21 [Example 126, N-(5-((4-(1-allyl-1H-indol-3-yl)pyrimidin-2-yl)amino)-4-methoxy-2-(methyl(2-(methylamino)ethyl)amino)phenyl)acrylamide] | 1.51 | 10.17 | 15.4 | 34 |  | 
C=CC(=O)Nc1cc(Nc2ncc(Cl)c(-c3cn(C4COC4)c4ccccc34)n2)c(OC)cc1N(C)CCN(C)C [Example 130, N-(5-((5-chloro-4-(1-(oxetan-3-yl)-1H-indol-3-yl)pyrimidin-2-yl)amino)-2-((2-(dimethylamino)ethyl)(methyl)amino)-4-methoxyphenyl)acrylamide] |  |  |  |  |  | 97
C=CC(=O)Nc1cc(Nc2nccc(-n3nc(C)c4ccc(OC)cc43)n2)c(OC)cc1N(C)CCN1CCCC1 [Example 132, N-(4-methoxy-5-((4-(6-methoxy-3-methyl-1H-indazol-1-yl)pyrimidin-2-yl)amino)-2-(methyl(2-(pyrrolidin-1-yl)ethyl)amino)phenyl)acrylamide] | 1.29 | 9.34 | 12 | 10.1 |  | 
C=CC(=O)Nc1cc(Nc2nccc(-n3ncc4cc(OCC)ccc43)n2)c(OC)cc1N(C)CCN1CCCC1 [Example 133] | 0.69 | 10.86 | 7.49 | 6.47 |  | 
C=CC(=O)Nc1cc(Nc2nccc(-n3cnc4ccc(OC)cc43)n2)c(OC)cc1N(C)CCN1CCCC1 [Example 139, N-(4-methoxy-5-((4-(6-methoxy-1H-benzo[d]imidazol-1-yl)pyrimidin-2-yl)amino)-2-(methyl(2-(pyrrolidin-1-yl)ethyl)amino)phenyl)acrylamide] | 1.44 | 6.36 | 9.16 | 6.28 |  | 
C=CCn1cc(-c2ccnc(Nc3cc(NC(=O)C=C)c(N(C)CCN(C)C)cc3OC)n2)c2ccccc21 [Example 141, N-(5-((4-(1-allyl-1H-indol-3-yl)pyrimidin-2-yl)amino)-2-((2-(dimethylamino)ethyl)(methyl)amino)-4-methoxyphenyl)acrylamide] | 0.6 | 11.1 | 6.62 | 7.51 |  | 
